Among the data in patent publication US20240124444A1 (Celgene Corporation, priority 2020, published 2024) are inhibition and EC50 values, retold here.

This assay concerns C. parvum strain UGA1. In words: C. parvum growth inhibition assay (Nluc luminescence in HCT-8 cells). The format is cell-based, Cryptosporidium parvum. The settings on record: Cryptosporidium parvum; for inhibition at 1 µM / inhibition at 10 µM: HCT-8; for inhibition at 1 µM: read-out: % inh @ 1 uM C. parvum; for inhibition at 10 µM: read-out: % inh @ 10 uM C. parvum; for EC50: HCT-8, 48 h, C. parvum growth inhibition in HCT-8 cells, 48 hours, 6 concentrations 10-0.04 μM.

Where [1] appears, read: single point inhibition @ 10 uM.
Setting [2] is: single point inhibition at 1 uM.
Setting [3] is: single point inhibition at 10 uM.

Read-outs that look alike come from different tables or passages of the source.

On to `O=C(Nc1cc2[nH]c(-c3ccnc(OCCCF)n3)cc2cn1)c1cnn(CC2CCCO2)c1` (stereo in doubt) [Example 171, (S)-N-(2-(2-(3-fluoropropoxy)pyrimidin-4-yl)-1H-pyrrolo[3,2-c]pyridin-6-yl)-1-((tetrahydrofuran-2-yl)methyl)-1H-pyrazole-4-carboxamide], for which the inhibition at 1 µM (single point inhibition @ 1 uM) was in the range of 0 to 33%. In addition, the inhibition at 10 µM under setting [1] was 67 to 100%.

On to `Cn1cc(C(=O)Nc2cc3c(cn2)cc(C#N)n3C)cn1` [Example 279, N-(2-cyano-1-methyl-1H-pyrrolo[3,2-c]pyridin-6-yl)-1-methyl-1H-pyrazole-4-carboxamide], for which the inhibition at 1 µM under setting [2] was 0 to 33%. Under setting [3], the inhibition at 10 µM was in the range of 0 to 33%.

For `Cc1cc(-c2cc3cnc(NC(=O)c4cnn(C5CCC5)c4)cc3[nH]2)ccn1` [Example 205, 1-cyclobutyl-N-(2-(2-methylpyridin-4-yl)-1H-pyrrolo[3,2-c]pyridin-6-yl)-1H-pyrazole-4-carboxamide], the inhibition at 1 µM under setting [2] is 0 to 33%. Moreover, under setting [3], the inhibition at 10 µM was in the range of 67 to 100%.

Consider `Cn1c(-c2cccnc2)cc2cnc(Nc3cccc(-c4nc[nH]n4)c3)cc21` [Example 275, N-(3-(1H-1,2,4-triazol-3-yl)phenyl)-1-methyl-2-(pyridin-3-yl)-1H-pyrrolo[3,2-c]pyridin-6-amine], for which, under setting [2], the inhibition at 1 µM was 0 to 33%. The inhibition at 10 µM under setting [3] fell in the range of 0 to 33%.

On to `Cc1cc(-c2cc3cnc(N)cc3n2C)ncn1` [Example 125, 1-methyl-2-(6-methylpyrimidin-4-y)-1H-pyrrolo[3,2-c]pyridin-6-amine], for which the EC50 (commonly the midpoint of the concentration-response curve) was above 1 µM.

For `Cc1ccnc(-c2cc3cnc(NC4CCOCC4)cc3[nH]2)c1` [Example 350, 2-(4-methylpyridin-2-yl)-N-(tetrahydro-2H-pyran-4-yl)-1H-pyrrolo[3,2-c]pyridin-6-amine], the EC50 is above 1 µM.

Regarding `Cn1cc(C(=O)Nc2cc3[nH]c(-c4cc(C(F)(F)F)ccn4)cc3cn2)cn1` [Example 299, 1-methyl-N-(2-(4-(trifluoromethyl)pyridin-2-yl)-1H-pyrrolo[3,2-c]pyridin-6-yl)-1H-pyrazole-4-carboxamide], the inhibition at 1 µM under setting [2] was in the range of 0 to 33%. Besides, the inhibition at 10 µM under setting [3] fell in the range of 0 to 33%.

For `CCOc1nccc(-c2cc3cnc(NC(=O)c4cn(CC5CCCO5)nc4C)cc3[nH]2)n1` (stereo in doubt) [Example 322, (S)-N-(2-(2-ethoxypyrimidin-4-yl)-1H-pyrrolo[3,2-c]pyridin-6-yl)-3-methyl-1-((tetrahydrofuran-2-yl)methyl)-1H-pyrazole-4-carboxamide], under setting [2], the inhibition at 1 µM is 0 to 33%. Further, under setting [3], the inhibition at 10 µM lay in the range of 0 to 33%.

The compound `FC(F)(F)COc1nccc(-c2cc3cnc(NC4CCOCC4)cc3[nH]2)n1` [Example 380, N-(tetrahydro-2H-pyran-4-yl)-2-(2-(2,2,2-trifluoroethoxy)pyrimidin-4-yl)-1H-pyrrolo[3,2-c]pyridin-6-amine] returned an EC50 above 1 µM.

Take `Cn1cc(C(=O)Nc2cc3c(cn2)cc(-c2ccnc(C(F)(F)F)n2)n3C)cn1` [Example 200, 1-methyl-N-(1-methyl-2-(2-(trifluoromethyl)pyrimidin-4-yl)-1H-pyrrolo[3,2-c]pyridin-6-yl)-1H-pyrazole-4-carboxamide]: the inhibition at 1 µM under setting [2] is 33 to 66%. Further, the inhibition at 10 µM under setting [3] was 67 to 100%.

Turning to `Cn1cc(C(=O)Nc2cc3[nH]c(-c4ccc(F)cn4)cc3cn2)cn1` [Example 334, N-(2-(5-fluoropyridin-2-yl)-1H-pyrrolo[3,2-c]pyridin-6-yl)-1-methyl-1H-pyrazole-4-carboxamide], the inhibition at 1 µM under setting [2] lay in the range of 0 to 33%. The inhibition at 10 µM under setting [3] was in the range of 0 to 33%.

Regarding `Cc1nn(C)cc1C(=O)Nc1cc2[nH]c(-c3ccnc(OCC(F)(F)F)n3)cc2cn1` [Example 226, 1,3-dimethyl-N-(2-(2-(2,2,2-trifluoroethoxy)pyrimidin-4-yl)-1H-pyrrolo[3,2-c]pyridin-6-yl)-1H-pyrazole-4-carboxamide], the inhibition at 1 µM under setting [2] was in the range of 0 to 33%. For the same compound, the inhibition at 10 µM under setting [3] fell in the range of 33 to 66%.

On to `Cc1cc(-c2cc3cnc(NC(=O)c4cccc5[nH]ncc45)cc3[nH]2)ccn1` [Example 289, N-(2-(2-methylpyridin-4-yl)-1H-pyrrolo[3,2-c]pyridin-6-yl)-1H-indazole-4-carboxamide], for which the inhibition at 1 µM under setting [2] lay within 0 to 33%. Further, the inhibition at 10 µM under setting [3] lay in the range of 0 to 33%.

Take `CNC(=O)Nc1cc2[nH]c(-c3ccnc(C)c3)cc2cn1` [Example 214, 1-methyl-3-(2-(2-methylpyridin-4-yl)-1H-pyrrolo[3,2-c]pyridin-6-yl)urea]: the inhibition at 1 µM under setting [2] was in the range of 0 to 33%. In addition, the inhibition at 10 µM under setting [3] lay in the range of 67 to 100%.

`Cc1cc(-c2cc3cnc(NC(=O)C4(C)CC4)cc3[nH]2)ccn1` [Example 95, 1-methyl-N-(2-(2-methylpyridin-4-yl)-1H-pyrrolo[3,2-c]pyridin-6-yl)cyclopropanecarboxamide] registered an EC50 above 1 µM.

`Cc1nccc(-c2cc3cnc(NC4CCOCC4)cc3n2C)n1` [Example 378, 1-methyl-2-(2-methylpyrimidin-4-yl)-N-(tetrahydro-2H-pyran-4-yl)-1H-pyrrolo[3,2-c]pyridin-6-amine] returned an EC50 above 1 µM.

The compound `Cc1cc(-c2cc3cnc(NC4CCN(C)CC4)cc3n2C)ncn1` [Example 117, 1-methyl-N-(1-methylpiperidin-4-yl)-2-(6-methylpyrimidin-4-yl)-1H-pyrrolo[3,2-c]pyridin-6-amine] returned a concentration for a half-maximal effect (EC50) above 1 µM.

For `FC(F)(F)CNc1nccc(-c2cc3cnc(NC4CCOC4)cc3[nH]2)n1` (stereo in doubt) [Example 374, (S)-N-(tetrahydrofuran-3-yl)-2-(2-(2,2,2-trifluoroethylamino)pyrimidin-4-yl)-1H-pyrrolo[3,2-c]pyridin-6-amine], the EC50 was in the range of 0.5 to 1 µM.

`Cc1cc(-c2cc3cnc(NCC4CC4)cc3[nH]2)ccn1` [Example 67, N-(cyclopropylmethyl)-2-(2-methylpyridin-4-yl)-1H-pyrrolo[3,2-c]pyridin-6-amine] had an EC50 above 1 µM.

With `COc1nccc(-c2cc3cnc(NC(=O)[C@H]4C[C@H](O)C4)cc3[nH]2)n1` [Example 63, (1r,3r)-3-hydroxy-N-(2-(2-methoxypyrimidin-4-yl)-1H-pyrrolo[3,2-c]pyridin-6-yl)cyclobutanecarboxamide], the EC50 was above 1 µM. In addition, the inhibition at 1 µM (single point inhibition @ 1 uM) lay in the range of 0 to 33%. Also, under setting [1], the inhibition at 10 µM fell in the range of 67 to 100%.

With `COc1cc(-c2cc3cnc(NC(=O)c4cnn(C)c4)cc3[nH]2)ccn1` [Example 286, N-(2-(2-methoxypyridin-4-yl)-1H-pyrrolo[3,2-c]pyridin-6-yl)-1-methyl-1H-pyrazole-4-carboxamide], under setting [2], the inhibition at 1 µM lay within 0 to 33%. Further, the inhibition at 10 µM under setting [3] fell in the range of 0 to 33%.

`Cn1cc(C(=O)Nc2cc3[nH]c(-c4ccnc(OCC(F)(F)F)n4)cc3cn2)cn1` [Example 308, 1-methyl-N-(2-(2-(2,2,2-trifluoroethoxy)pyrimidin-4-yl)-1H-pyrrolo[3,2-c]pyridin-6-yl)-1H-pyrazole-4-carboxamide]: the inhibition at 1 µM under setting [2] fell in the range of 0 to 33%. Besides, the inhibition at 10 µM under setting [3] fell in the range of 0 to 33%.

`O=C(Nc1cc2[nH]c(-c3ccnc(C(F)(F)F)n3)cc2cn1)C1C2CCCC21` (stereo not drawn) [Example 199, N-(2-(2-(trifluoromethyl)pyrimidin-4-yl)-1H-pyrrolo[3,2-c]pyridin-6-yl)bicyclo[3.1.0]hexane-6-carboxamide]: under setting [2], the inhibition at 1 µM is 0 to 33%. The inhibition at 10 µM under setting [3] was 67 to 100%.
